Source: US20250074889A1, “Novel Aminobenzene Derivative Having Cancer Cell Growth Inhibitory Effect, and Preventive or Therapeutic Pharmaceutical Composition Containing Same as Active Ingredient” (Daewoong Pharmaceutical Co., Ltd., priority 2022, published 2025)

Tests used:
Assay type in all cases: cell-based
[1] = system: transcription factor TEAD; assay: Activity inhibition test of transcription factor TEAD (ONE-Glo luciferase, TEAD reporter-MCF7 cell line); settings: Homo sapiens; TEAD Reporter-MCF7 cells, 24 hours treatment, luciferase luminescence
Experimental: The transcription factor TEAD activity of the compounds prepared in Examples was measured by the ONE-Glo™ Luciferase assay (Promega, Catalog #E6110) method using the Hippo Pathway TEAD reporter-MCF7 recombinant cell line (BPS Bioscience, Catalog #60618).
Specifically, the TEAD Reporter-MCF7 cell line contains the firefly luciferase gene whose expression is regulated under the control of TEAD response elements in the MCF7, which is a human breast cancer cell line. In the cell line, a non-phosphorylated YAP/TAZ exists in the nucleus in a non-stressed condition, which continuously induces expression of the luciferase reporter.
TEAD Reporter-MCF7 cells were prepared in 100 μL of cell culture medium (MEM medium, 10% FBS, 1% P/S, 400 μg/mL Geneticin, 1% […], 1 mM NA pyruvate, 10 μg/mL Insulin) in a white clear bottom 96-well microplate. The prepared plate was incubated in a 5% CO2 incubator at 37° C. for 24 hours, and then the previously prepared compounds of Examples were finally treated at concentrations of 0.001, 0.01, 0.1, 1, and 10 µM, which were repeated three times for all treatment solutions. The plates treated with the compounds of Examples were incubated in a 5% CO2 incubator at 37° C. for 24 hours. 100 μL/well of the substrate aqueous solution containing luciferin was added to a white clear-bottom 96 well microplate, thereby initiating an enzyme reaction. The reaction was performed at room temperature for 5 minutes, and the luminescence (integration time 1000 ms) was measured using a Flexstation3 multi-mode microplate reader. In accordance with the instructions for the ONE-Glo™ Luciferase Assay, the luciferase enzyme activity, which represents the activity of the transcription factor TEAD, was measured by a chemiluminescence method, and the inhibitory activity of the compound according to the present invention was calculated. The results of each compound were analyzed using Microsoft Excel, and the IC50 values were calculated by GraphPad Prism software.

[2] = system: NCI-H226 human mesothelioma cell line; assay: Cell growth inhibition test (CellTiter-Glo), NCI-H226; settings: NCI-H226 cells
Experimental: (§1) The cell growth for the compounds prepared in Examples was measured by CellTiter-Glo® Luminescent Cell Viability (Promega, Catalog #G7571) method using NCI-H226 (addexbio), NCI-H28 (Korea Cell Line Bank) and MSTO-211H (elabscience) human mesothelioma cell lines. This evaluation method is a method in which when luciferase enzyme is activated by ATP flowing out from living cells, it reacts with a luciferin substrate, and the enzyme activity at this time is measured to confirm cell viability.
(§2) Specifically, NCI-H226, NCI-H28, and MSTO-211H cells were prepared in 100 μL of cell culture medium (RPMI medium, 10% FBS, 1% P/S, 4.5 g/L D-Glucose, 2.383 g/L HEPES Buffer, L-Glutamine, 1.5 g/L Sodium Bicarbonate, 110 mg/L Sodium pyruvate) in a white clear bottom 96-well microplate. The prepared plate was incubated in a 5% CO2 incubator at 37° C. for 24 hours, and then the previously prepared compounds of Examples were finally treated at concentrations of 0.001, 0.01, 0.1, 1, and 10 μM, which was repeated three times for all treatment solutions. The plates treated with the compounds of Examples were incubated in a 5% CO2 incubator at 37° C. 100 μL/well of the substrate aqueous solution containing luciferin was added to a white clear-bottom 96 well microplate, thereby initiating an enzyme reaction. The reaction was performed at room temperature in the dark for 10 minutes, and the luminescence was measured using a Flexstation3 multi-mode microplate reader. In accordance with the instructions for the CellTiter-Glo™ Luminescednt Cell Viability, the luciferase enzyme activity, which represents the amount of ATP, was measured by a chemiluminescence method, and the inhibitory activity of the compounds according to the present invention was calculated. The results of each compound were analyzed using Microsoft Excel, and the IC50 values were calculated using GraphPad Prism software.

[3] = system: MSTO-211H human mesothelioma cell line; assay: Cell growth inhibition test (CellTiter-Glo), MSTO-211H; settings: MSTO-211H cells
Experimental: as §1, §2

[4] = system: NCI-H28 human mesothelioma cell line; assay: Cell growth inhibition test (CellTiter-Glo), NCI-H28; settings: NCI-H28 cells
Experimental: as §1, §2

IC50 [1] [nM] | IC50 [2] [nM] | IC50 [3] [nM] | IC50 [4] [nM] | SMILES
21.5 | 20 | 196 | 2550 | C=CC(=O)Nc1cc(F)c(Nc2ccc(C(F)(F)F)cn2)c(-c2ccccn2)c1 [Example 29, N-(3-fluoro-5-(pyridin-2-yl)-4-((5-(trifluoromethyl)pyridin-2-yl)amino)phenyl)acrylamide]
12.8 | 65 | 167 | 1250 | C=CC(=O)Nc1ccc(Nc2cc(Cl)c(Cl)cn2)c(-c2ccn(C)n2)c1 [Example 55, N-(4-((4,5-dichloropyridin-2-yl)amino)-3-(1-methyl-1H-pyrazol-3-yl)phenyl)acrylamide]
15 | 6.6 | 1130 | 5540 | C=CC(=O)Nc1ccc(Nc2ccc(C(F)(F)F)c(F)c2)c(-c2cn(C)cn2)c1 [Example 40, N-(4-((3-fluoro-4-(trifluoromethyl)phenyl)amino)-3-(1-methyl-1H-imidazol-4-yl)phenyl)acrylamide]
5.3 | 3 | 105 | 3020 | C=CC(=O)Nc1ccc(Nc2ccc(C(F)(F)F)cc2)c(-c2cn(C)cn2)c1 [Example 35, N-(3-(1-methyl-1H-imidazol-4-yl)-4-((4-(trifluoromethyl)phenyl)amino)phenyl)acrylamide]
31.6 | 10 | 2210 | 8790 | C=CC(=O)Nc1ccc(Nc2cc(C3CC3)c(Cl)cn2)c(-c2ccccn2)c1 [Example 30, N-(4-((5-chloro-4-cyclopropylpyridin-2-yl)amino)-3-(pyridin-2-yl)phenyl)acrylamide]
17.8 | 6 | 130 | 3310 | C=CC(=O)Nc1ccc(Nc2ccc(C(F)(F)F)cn2)c(-c2ccccn2)c1 [Example 4, N-(3-(pyridin-2-yl)-4-((5-(trifluoromethyl)pyridin-2-yl)amino)phenyl)acrylamide]
40.3 | 15.8 | 194 | 3280 | C=CC(=O)Nc1cnc(Nc2ccc(C(F)(F)F)cn2)c(-c2ccccn2)c1 [Example 39, N-(2′-((5-(trifluoromethyl)pyridin-2-yl)amino)-[2,3′-bipyridin]-5′-yl)acrylamide]
42.8 | 71.8 | 552 | 1570 | C=CC(=O)Nc1ccc(Nc2ccc(C(F)(F)F)cn2)c(-c2ccncn2)c1 [Example 15, N-(3-(pyrimidin-4-yl)-4-((5-(trifluoromethyl)pyridin-2-yl)amino)phenyl)acrylamide]
11.5 | 9 | 3270 | 2680 | C=CC(=O)Nc1ccc(Nc2ncc(C(F)(F)F)cc2F)c(-c2ccccn2)c1 [Example 21, N-(4-((3-fluoro-5-(trifluoromethyl)pyridin-2-yl)amino)-3-(pyridin-2-yl)phenyl)acrylamide]
10 | 3 | 221 | 1380 | C=CC(=O)Nc1ccc(Nc2ccc(C(F)(F)F)cn2)c(-c2cn(C)cn2)c1 [Example 6, N-(3-(1-methyl-1H-imidazol-4-yl)-4-((5-(trifluoromethyl)pyridin-2-yl)amino)phenyl)acrylamide]
4.5 | 13 | 3750 | 1100 | C=CC(=O)Nc1ccc(Nc2cc(Cl)c(C(F)(F)F)cn2)c(-c2ccn(C)n2)c1 [Example 37, N-(4-((4-chloro-5-(trifluoromethyl)pyridin-2-yl)amino)-3-(1-methyl-1H-pyrazol-3-yl)phenyl)acrylamide]
30.7 | 62.8 | 8240 | 1670 | C=CC(=O)Nc1ccc(Nc2ncc(C(F)(F)F)cc2Cl)c(-c2ccn(C)n2)c1 [Example 53, N-(4-((3-chloro-5-(trifluoromethyl)pyridin-2-yl)amino)-3-(1-methyl-1H-pyrazol-3-yl)phenyl)acrylamide]
